Among the test systems are NCI-H522; CAKI-1; HCC 2998; HT-29; 786-0; A549; HCT-116; CCRF-CEM; NCI-H460; MOLT-4; K562; SN12C; SK-MEL-2.
What all share (assay): inhibition of tumour cell growth, NCI panel, 48 h

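Briefly, cells in 96-well plates were exposed to five compound concentrations for 48 h, and endpoints were estimated by linear interpolation. At the GI50, growth is halved.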 Active and inactive are the calls of the source. Rule as the data show it: active = GI50 up to about 1.1 µM and inactive = higher.

For `Cc1oc2c(C)c3oc(=O)cc(C)c3cc2c1CN1C(=O)C2OCCOCCOCCOCCOCCO[C@H]2C1=O` (stereo partly drawn), the GI50 in the experiment on NCI-H522, with CAKI-1, in the experiment with HCC 2998, with HT-29, with 786-0 and with A549 was > 100 µM (inactive) in each case. For the same compound, the GI50 with HCT-116, with CCRF-CEM, in the experiment on NCI-H460, in the experiment with MOLT-4, with K562 and in the experiment on SN12C was > 100 µM (inactive) throughout.
Take `C#CCC[C@@H]1O[C@@]1(C)CC/C=C(\C)CC/C=C/C=O`: the GI50 in the experiment with HT-29 was 37.2 µM (inactive); in the experiment with 786-0, 73.5 µM (inactive); in the experiment with A549, 43.6 µM (inactive); in the experiment on CCRF-CEM, 23.3 µM (inactive); in the experiment on NCI-H460 it was 41.1 µM (inactive); with MOLT-4 it was 22.4 µM (inactive). Further, the results for the GI50 with K562, in the experiment on SK-MEL-2 and in the experiment with SN12C were 22.6 µM (inactive), 55.7 µM (inactive) and 30.3 µM (inactive), respectively.
For the compound `Cc1cccc(Cl)c1NC(N)=S`, the GI50 in the experiment on CAKI-1 is 43.7 µM (inactive); in the experiment on HCC 2998, > 100 µM (inactive); in the experiment on HT-29, 43.4 µM (inactive); with 786-0 it was 20.2 µM (inactive); with A549, 82.8 µM (inactive); with HCT-116 it was 17.4 µM (inactive). The GI50 in the experiment with CCRF-CEM was 35.6 µM (inactive); in the experiment on NCI-H460, 51.3 µM (inactive); with MOLT-4 it was 47.1 µM (inactive); in the experiment on K562, 28.3 µM (inactive); with SN12C, > 100 µM (inactive).
On to `Cc1ccc2nc(/C(=C/c3ccc(/C=C(\NC(=O)c4ccccc4)c4nc5ccc(C)cc5[nH]4)c(C)c3)NC(=O)c3ccccc3)[nH]c2c1`, for which the GI50 was 22.2 µM (inactive) in the experiment with NCI-H522; 35.2 µM (inactive) in the experiment with CAKI-1; 28.1 µM (inactive) in the experiment with HT-29; 9.02 µM (inactive) in the experiment with 786-0; 6.14 µM (inactive) with A549; 18.1 µM (inactive) with HCT-116. Besides, the GI50 with CCRF-CEM is 3.02 µM (inactive); in the experiment with NCI-H460, 13.2 µM (inactive); in the experiment on MOLT-4 it was 0.383 µM (active); in the experiment with K562, 0.785 µM (active); in the experiment on SK-MEL-2, 5.13 µM (inactive); in the experiment with SN12C it was 5.5 µM (inactive).
Regarding `COc1ccccc1NC(=O)CSC(N)=O`, the GI50 is 33.4 µM (inactive) with NCI-H522; 33.6 µM (inactive) with CAKI-1; > 100 µM (inactive) with HCC 2998; 47.2 µM (inactive) with HT-29; 19.1 µM (inactive) in the experiment on 786-0; 72.6 µM (inactive) with A549. Moreover, the GI50 was 18.8 µM (inactive) with HCT-116; 12.9 µM (inactive) in the experiment on CCRF-CEM; 32.7 µM (inactive) with NCI-H460; 46 µM (inactive) in the experiment on K562; 22.9 µM (inactive) in the experiment on SK-MEL-2; 62.2 µM (inactive) with SN12C.
For `COc1nc(N)c(C(=O)CCl)c(=O)n1C`, the GI50 in the experiment with CAKI-1 is 7.41 µM (inactive); with HCC 2998 it was 9.68 µM (inactive); in the experiment with HT-29 it was 16 µM (inactive); in the experiment on A549, 18 µM (inactive); with HCT-116, 10.9 µM (inactive); in the experiment with CCRF-CEM, 15.1 µM (inactive). For the same compound, the GI50 with NCI-H460 was 19 µM (inactive); in the experiment with MOLT-4, 13.9 µM (inactive); with K562, 8.17 µM (inactive); in the experiment with SK-MEL-2, 12.5 µM (inactive); with SN12C it was 17.5 µM (inactive).
On to `O=C1N[C@@H]2CCCC[C@@H]2C12CCCCC2`, for which the GI50 in the experiment on HCC 2998, with HT-29, with 786-0, in the experiment on A549, in the experiment on HCT-116 and in the experiment with CCRF-CEM was > 100 µM (inactive) each time. For the same compound, the GI50 in the experiment on NCI-H460, with MOLT-4, in the experiment with K562 and in the experiment with SN12C was > 100 µM (inactive) in each case.
Turning to `CCCCCCCC(=O)OC(COC(=O)Cc1ccccc1)COC(=O)C(C)(C)C` (stereo not drawn), the GI50 in the experiment on CAKI-1, with HCC 2998, with 786-0, in the experiment with A549, in the experiment with HCT-116 and in the experiment with CCRF-CEM was > 100 µM (inactive) in each case. Besides, the GI50 in the experiment with NCI-H460 is > 100 µM (inactive); in the experiment on MOLT-4, 71.9 µM (inactive); in the experiment with K562, 52.4 µM (inactive); in the experiment on SN12C, > 100 µM (inactive).
For `O=C(NCCO)c1cc2c(cn1)[nH]c1ccccc12`, the GI50 is > 100 µM (inactive) in the experiment on NCI-H522; > 100 µM (inactive) in the experiment on CAKI-1; 16.9 µM (inactive) in the experiment on HCC 2998; > 100 µM (inactive) in the experiment on HT-29; 17.4 µM (inactive) in the experiment with 786-0; > 100 µM (inactive) in the experiment on A549. Further, the GI50 with HCT-116 is > 100 µM (inactive); with CCRF-CEM, > 100 µM (inactive); in the experiment on NCI-H460, > 100 µM (inactive); with MOLT-4, > 100 µM (inactive); with K562, > 100 µM (inactive); in the experiment with SK-MEL-2, 16.8 µM (inactive). Also, the GI50 in the experiment on SN12C is > 100 µM (inactive).
Turning to `O=C(/N=C(/Nc1ccccc1)SCS/C(=N\C(=O)c1ccco1)Nc1ccccc1)c1ccco1`, the GI50 in the experiment on NCI-H522 was 27.4 µM (inactive); with CAKI-1, 29.4 µM (inactive); with HCC 2998, 53.7 µM (inactive); in the experiment with HT-29, > 100 µM (inactive); in the experiment with 786-0, 35.2 µM (inactive); in the experiment with A549 it was 41.5 µM (inactive). The GI50 was 37.2 µM (inactive) in the experiment with HCT-116; > 100 µM (inactive) with CCRF-CEM; > 100 µM (inactive) in the experiment on NCI-H460; > 100 µM (inactive) in the experiment on MOLT-4; > 100 µM (inactive) in the experiment with K562; 80.2 µM (inactive) in the experiment with SK-MEL-2. In addition, the GI50 in the experiment on SN12C was 84.1 µM (inactive).
With `CN(C)c1ccc(O[Si](Oc2ccc(N(C)C)cc2)(Oc2ccc(N(C)C)cc2)Oc2ccc(N(C)C)cc2)cc1`, the GI50 in the experiment on NCI-H522 is 25.7 µM (inactive); in the experiment with CAKI-1, > 100 µM (inactive); with HCC 2998 it was 79.6 µM (inactive); with HT-29, > 100 µM (inactive); in the experiment on 786-0 it was > 100 µM (inactive); in the experiment on A549, > 100 µM (inactive). Moreover, the GI50 in the experiment with HCT-116 was > 100 µM (inactive); with CCRF-CEM it was 40.8 µM (inactive); in the experiment with MOLT-4 it was 98.2 µM (inactive); in the experiment on K562, > 100 µM (inactive); with SN12C, 96.8 µM (inactive).
Turning to `CN(C)CCC1(C2=CCCC2)CC/C(=C\c2ccc3c(c2)OCO3)C1=O` (stereo not drawn), the GI50 in the experiment with HCC 2998 was 15.8 µM (inactive); in the experiment with HT-29 it was 12.2 µM (inactive); in the experiment on 786-0, 14 µM (inactive); in the experiment with A549, 16 µM (inactive); in the experiment on HCT-116 it was 13.2 µM (inactive); with CCRF-CEM, 16 µM (inactive). For the same compound, the GI50 with NCI-H460 was 18.4 µM (inactive); in the experiment on MOLT-4 it was 12.3 µM (inactive); with K562, 11.5 µM (inactive); with SK-MEL-2, 16.9 µM (inactive); with SN12C, 14.5 µM (inactive).
Take `O=c1cccccc1NCCOCCNc1cccccc1=O`: the GI50 with NCI-H522, in the experiment with CAKI-1, in the experiment on HCC 2998, with HT-29, in the experiment on 786-0 and with A549 was > 100 µM (inactive) throughout. Also, the GI50 in the experiment on HCT-116, in the experiment with CCRF-CEM, in the experiment with NCI-H460, in the experiment with MOLT-4, with K562 and with SK-MEL-2 was > 100 µM (inactive) throughout. In addition, the GI50 in the experiment with SN12C was > 100 µM (inactive).
As for `CCN(CC)c1ccc(/N=N\c2ccc(-c3nc4ccc[n+](C)c4s3)cc2)cc1`, the GI50 with NCI-H522 is 3.06 µM (inactive); in the experiment with CAKI-1 it was 19.7 µM (inactive); in the experiment on HT-29 it was 5.25 µM (inactive); in the experiment on 786-0, 17.1 µM (inactive); in the experiment with A549 it was 4.2 µM (inactive); in the experiment with HCT-116 it was 3.53 µM (inactive). Besides, the GI50 with CCRF-CEM is 3.05 µM (inactive); in the experiment with NCI-H460, 4.01 µM (inactive); in the experiment on MOLT-4, 2.84 µM (inactive); in the experiment with K562, 2.4 µM (inactive); in the experiment on SK-MEL-2, 7.83 µM (inactive); with SN12C it was 4.29 µM (inactive).
Take `Cn1cc(NC(=O)c2cc(NC(=O)CCCCCCCC(=O)Nc3cc(C(=O)Nc4cc(C(=O)NCCC(=N)N)n(C)c4)n(C)c3)cn2C)cc1C(=O)NCCC(=N)N`: the GI50 was 18.8 µM (inactive) with CAKI-1; 16.1 µM (inactive) with HCC 2998; 63.1 µM (inactive) with HT-29; 34 µM (inactive) in the experiment with 786-0; 13.9 µM (inactive) with A549; 17.9 µM (inactive) with HCT-116. The GI50 in the experiment on CCRF-CEM was 25.3 µM (inactive); in the experiment with NCI-H460, 4.69 µM (inactive); in the experiment on MOLT-4, 21.9 µM (inactive); in the experiment with K562, 11 µM (inactive); with SK-MEL-2, 14.1 µM (inactive); in the experiment on SN12C it was 12.6 µM (inactive).
In the case of `C=C(C)C(=O)OC1C/C(CO)=C\C(O)C/C(C)=C/C2OC(=O)C(=C)C21` (stereo not drawn), the GI50 was 12.8 µM (inactive) in the experiment with NCI-H522; 22.8 µM (inactive) with CAKI-1; > 10 µM (inactive) in the experiment on HCC 2998; 17.6 µM (inactive) in the experiment on HT-29; 16 µM (inactive) in the experiment on 786-0; 64.4 µM (inactive) with A549. Also, the GI50 in the experiment with HCT-116 was 17.5 µM (inactive); in the experiment with CCRF-CEM, 8.65 µM (inactive); in the experiment with NCI-H460 it was 17.7 µM (inactive); in the experiment on MOLT-4, 21.3 µM (inactive); in the experiment with K562 it was 18 µM (inactive); with SK-MEL-2, 17 µM (inactive). For the same compound, in the experiment on SN12C, the GI50 was 20 µM (inactive).
In the case of `CC#N.O[C@@H]1CCCC[C@H]1O.O[C@@H]1CCCC[C@H]1O.[TeH2]`, the GI50 was 37.2 µM (inactive) in the experiment on NCI-H522; > 100 µM (inactive) in the experiment with CAKI-1; > 100 µM (inactive) in the experiment on HCC 2998; 28.2 µM (inactive) in the experiment with HT-29; 48.8 µM (inactive) in the experiment with 786-0; 41.5 µM (inactive) with A549. For the same compound, the GI50 in the experiment on HCT-116 was 13.4 µM (inactive); in the experiment with CCRF-CEM, 20.2 µM (inactive); in the experiment on NCI-H460 it was 2.99 µM (inactive); in the experiment on MOLT-4, 27.4 µM (inactive); in the experiment with K562 it was 25.8 µM (inactive); with SK-MEL-2, > 100 µM (inactive). Moreover, the GI50 in the experiment with SN12C is 29.1 µM (inactive).

For the origin of these results see ChEMBL document CHEMBL1201862, “PubChem BioAssay data set” (2004).
